The source of these data is patent publication US20140088187A1, “ANDROGEN RECEPTOR INHIBITORS AND METHODS OF USE THEREOF” (BETH ISRAEL DEACONESS MEDICAL CENTER, priority 2010, published 2014).

For data set [1], the target named is T1, endogenous wildtype AR in VCaP cells (Homo sapiens, UniProt P10275).
T1 construct: endogenous in cells; host or cells: VCaP
T1 sequence (P10275 1-920): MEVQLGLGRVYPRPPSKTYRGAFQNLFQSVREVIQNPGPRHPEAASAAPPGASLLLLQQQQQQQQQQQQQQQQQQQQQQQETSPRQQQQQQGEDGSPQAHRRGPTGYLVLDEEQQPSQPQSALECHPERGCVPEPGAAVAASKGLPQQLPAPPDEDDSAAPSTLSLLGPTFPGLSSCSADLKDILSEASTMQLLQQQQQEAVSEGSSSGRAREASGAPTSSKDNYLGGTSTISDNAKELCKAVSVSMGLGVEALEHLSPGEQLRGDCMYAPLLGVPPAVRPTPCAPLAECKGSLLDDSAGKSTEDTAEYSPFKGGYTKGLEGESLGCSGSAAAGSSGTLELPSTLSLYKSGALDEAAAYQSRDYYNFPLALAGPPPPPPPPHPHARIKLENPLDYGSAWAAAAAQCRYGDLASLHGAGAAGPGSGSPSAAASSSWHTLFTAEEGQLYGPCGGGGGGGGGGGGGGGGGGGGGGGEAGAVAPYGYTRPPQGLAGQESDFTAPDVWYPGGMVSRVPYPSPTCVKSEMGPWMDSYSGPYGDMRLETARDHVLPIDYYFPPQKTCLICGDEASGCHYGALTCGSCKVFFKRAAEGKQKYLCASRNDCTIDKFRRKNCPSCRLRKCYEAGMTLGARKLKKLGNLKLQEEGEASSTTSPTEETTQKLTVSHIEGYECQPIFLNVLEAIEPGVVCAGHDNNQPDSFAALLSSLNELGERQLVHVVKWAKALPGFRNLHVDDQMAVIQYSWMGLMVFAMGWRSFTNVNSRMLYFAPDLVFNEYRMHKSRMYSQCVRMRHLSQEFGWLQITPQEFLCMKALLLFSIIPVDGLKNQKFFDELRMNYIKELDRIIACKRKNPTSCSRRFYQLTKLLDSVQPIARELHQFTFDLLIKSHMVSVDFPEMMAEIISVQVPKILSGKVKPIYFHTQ
Briefly: AR protein degradation with CHX in VCaP cells. It is filed as cell-based. The note with it: CHX 100 nM, A89 50 μM. How it is done:
As LNCaP and C4-2 cells express the T877A mutant AR, we next examined PC3-AR cells expressing wildtype AR. As observed in C4-2 cells, A89 caused a decrease in AR protein levels (FIG. 10d). To further validate that this was due to increased AR protein degradation, we pretreated these cells with A89 for 2 hours and then blocked new protein synthesis with cycloheximide (CHX). […] We finally examined VCaP cells.

A further data set deals with VCaP xenograft tumors. As to the kind of experiment: Post-castration relapsed VCaP xenograft tumors (model of CRPC). Type of data set: in vivo. On the procedure: FIG. 17. Compound A89 maintains activity in vivo and is efficacious in a CRPC xenograft model. (a) Morphological changes in seminal vesicles of intact adult male mice following treatment with DMSO vehicle, Bic (0.5 mg/day) or A89 (mg/day as indicated) for 7 days. (b) H&E stained cross-sections of prostate ductal epithelium from above mice treated with DMSO, Bic, or A89 (10 mg/day). (c) AR and Ki-67 staining in pre- and post-castration relapsed VCaP xenograft tumor sections following treatment with A89 (5 mg/day) or Bic (0.5 mg/day) for 7 days. (d) mRNA levels of AR and AR-target genes in post-castration relapsed VCaP xenograft tumors following treatment with A89 (5 mg/day) for 7 days. Error bars represent S.E.M.
To evaluate the activity of the chemotype A compounds in vivo we first treated adult male mice with compound A89 in a dose ranging experiment from 0.5 mg/day to 10 mg/day via intraperitoneal injection for 7 days. […] We next evaluated A89 in VCaP xenograft tumors that had relapsed following an initial response to castration, which is a model of CRPC.

A further data set addresses T2, AR ΔH12 (Homo sapiens, UniProt P10275).
T2 construct: expressed in transfected cells; host or cells: COS7
T2 sequence (P10275 1-886 limits assumed): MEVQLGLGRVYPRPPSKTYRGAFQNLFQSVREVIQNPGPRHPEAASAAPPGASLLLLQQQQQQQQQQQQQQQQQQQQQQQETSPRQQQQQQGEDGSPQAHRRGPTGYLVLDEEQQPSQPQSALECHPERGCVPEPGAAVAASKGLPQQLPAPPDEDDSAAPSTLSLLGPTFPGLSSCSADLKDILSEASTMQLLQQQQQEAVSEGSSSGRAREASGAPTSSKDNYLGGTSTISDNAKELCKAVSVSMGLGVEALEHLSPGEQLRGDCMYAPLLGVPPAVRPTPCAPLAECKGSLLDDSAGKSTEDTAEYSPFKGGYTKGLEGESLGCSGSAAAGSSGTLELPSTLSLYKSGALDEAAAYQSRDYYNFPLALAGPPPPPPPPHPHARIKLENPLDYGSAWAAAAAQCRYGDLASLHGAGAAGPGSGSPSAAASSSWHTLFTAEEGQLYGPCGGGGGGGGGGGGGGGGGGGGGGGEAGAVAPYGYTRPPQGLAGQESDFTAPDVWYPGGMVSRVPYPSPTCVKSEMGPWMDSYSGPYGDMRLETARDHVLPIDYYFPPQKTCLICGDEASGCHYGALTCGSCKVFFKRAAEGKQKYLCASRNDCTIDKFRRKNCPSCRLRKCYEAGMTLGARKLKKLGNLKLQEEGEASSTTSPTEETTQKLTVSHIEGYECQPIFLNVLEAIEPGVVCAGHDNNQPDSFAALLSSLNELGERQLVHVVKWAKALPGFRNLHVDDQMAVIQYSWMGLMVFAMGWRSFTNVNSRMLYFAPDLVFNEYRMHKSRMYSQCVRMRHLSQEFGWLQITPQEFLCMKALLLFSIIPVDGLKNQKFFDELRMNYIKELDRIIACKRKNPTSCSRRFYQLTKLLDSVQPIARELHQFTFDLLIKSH
As to the kind of experiment: AR expression levels in transiently transfected COS7 cells, AR ΔH12. It is filed as cell-based. The following applies: 24 hours.

With `CCOc1cc(F)c(S(=O)(=O)NCc2ccc3c(c2)OCO3)cc1F` [Compound A89, N-(1,3-benzodioxol-5-ylmethyl)-4-ethoxy-2,5-difluorobenzenesulfonamide], the “degradation of endogenous wildtype AR” value in data set [1] is recorded as “increased degradation”. Also, the “tumor cell proliferation (Ki-67 staining)” value with VCaP xenograft tumors (A89 5 mg/day for 7 days) was “decreased tumor cell proliferation”. Also, in the data set on VCaP xenograft tumors (A89 5 mg/day or Bic 0.5 mg/day for 7 days), the “nuclear AR expression / staining in tumor” value is reported as “substantially decreased”. Moreover, the “expression of androgen regulated genes (TMPRSS2, ERG, PSA mRNA)” value in the data set with VCaP xenograft tumors (biopsies pre- and post treatment, A89 5 mg/day for 7 days) was “significant decrease”. Also, the “AR ΔH12 protein levels” value at AR ΔH12 is given as “not clearly decreased”.
